Test results from patent publication US20230276803A1, “A PESTICIDALLY ACTIVE MIXTURE COMPRISING THIETANYLOXY COMPOUND, OXIDES OR SALTS THEREOF” (PI INDUSTRIES LTD., priority 2020, published 2023).

Experiments:
Format in all cases: in vivo
[1] = test system: Spodoptera litura; assay: Leaf dip method (tomato leaves), Bacillus thuringiensis mixture against Spodoptera litura (Example E); conditions: 0.1 ppm; 72 h
Excerpt: (§1) In which E represents the expected percentage of inhibition of the pests for the combination of two insecticides or one insecticide and one fungicide at defined doses (for example equal to x and y respectively), x is the percentage of inhibition observed for the pest/disease by the compound (1) at a given dose (equal to x), y is the percentage of inhibition observed for the pest/disease by the compound (2) or (3) at a defined dose (equal to y). When the percentage of inhibition observed for the combination is greater than E, there is a synergistic effect.
(§2) The leaf dip method was used, wherein the required quantity of the compounds were weighed and dissolved in a test solution prepared in tubes. The tubes were put on a vortex at 2000 rpm for 90 min for proper mixing and then, for the single compounds, diluted with a 0.01% Triton-X solution, for the combinations, diluted with a 0.01% Triton-X solution containing formulated Bt, to get the desired test concentration. Tomato leaves were dipped in the solution for 10 seconds, shade dried for 20 min and then transferred to single cells of the bioassay trays. […] Observations on dead, moribund and live larvae were recorded at 72 h after the release. Percent mortality was calculated by combining dead and moribund larvae and comparing the results to the one of the untreated control. […]

[2] = test system: Spodoptera litura; assay: Diet incorporation method against Spodoptera litura (Example B); conditions: 96 h
Excerpt: as §1
The diet incorporation method was used, in which semi-synthetic diet was incorporated into the test solution consisting either of the single compound or respective compound combinations, when the temperature was approximately 50° C. in the bioassay containers, then stirred thoroughly for proper mixing and allowed to cool for 30 min. The solidified diet was cut into equal pieces, and then each piece was transferred into one cell of the bio-assay trays. A single starved third instar larva was released into each of these cells of the bio-assay trays and the tray was covered with a lid. The bio-assay trays were kept under laboratory conditions at a temperature of 25° C. and relative humidity of 70%. Observations on dead, moribund and live larvae were recorded 96 h after the release. Percent mortality was calculated by combining dead and moribund larvae and comparing the result with the one of the untreated control. The results are shown for the compound of formula (I-1) in Table B.

[3] = test system: Helicoverpa armigera; assay: Diet incorporation method against Helicoverpa armigera (Example A); conditions: Helicoverpa armigera, 96 h, read-out: Observed Efficacy (%)
Excerpt: as §1
The diet incorporation method was used, in which semi-synthetic diet was incorporated into the test solutions consisting either of the single compounds or respective compound combinations, when the temperature was approximately 50° C. in the bio-assay containers, then stirred thoroughly for proper mixing and allowed to cool for 30 min. The solidified diet was cut into equal pieces, and then each piece was transferred into one cell of a bio-assay tray. A single starved third instar larva was released into each of these cells of the bio-assay trays and the tray was covered with a lid. The bio-assay trays were kept under laboratory conditions at a temperature of 25° C. and relative humidity of 70%. Observations on dead, moribund and live larvae were recorded 96 h after the release of the larvae. Percent mortality was calculated by combining dead and moribund larvae and comparing the result to the one of the untreated control. The results are shown for the compound of formula (I-1) in Table A.

[4] = test system: Helicoverpa armigera; assay: Leaf dip method (tomato leaves), Bacillus thuringiensis mixture against Helicoverpa armigera (Example D); conditions: 0.1 ppm; 72 h
Excerpt: as §1
as §2, with “concentrations.” for “concentration.”, “result” for “results”

Cc1cc(Cl)cc(C(=O)NC(C)(C)C)c1NC(=O)c1cc(OC2CS(=O)(=O)C2)nn1-c1ncccc1Cl [Compound (I-1), N-(2-(tert-butylcarbamoyl)-4-chloro-6-methylphenyl)-1-(3-chloropyridin-2-yl)-3-((1,1-dioxidothietan-3-yl)oxy)-1H-pyrazole-5-carboxamide]
Observed Efficacy (%) [1]: 0% | pest or weed control at 0.32 ppm ([2]; read-out: Observed Efficacy (%), 0.32 ppm): 37.5% | pest or weed control at 1 ppm ([2]; read-out: Observed Efficacy (%), 1 ppm): 25% | pest or weed control at 0.1 ppm ([3]; 0.1 ppm): 12.5% | pest or weed control at 0.41 ppm ([3]; 0.41 ppm): 50% | pest or weed control at 1 ppm ([3]; 1 ppm): 25% | Observed Efficacy (%) [4]: 12.5%
